Source: patent publication US8877748B2, “Heterocyclic fused anthraquinone derivatives, manufacturing method and pharmaceutical composition using thereof” (National Defense Medical Center, priority 2012, dated 2014)

Key:
[1] = system: PC-3 prostate cancer cell line; experiment: SRB assay cell viability, PC-3 prostate cancer cell line; assay type: cell-based, human; conditions: Homo sapiens, PC-3 prostate cancer cell line, Table II prints no unit, μM printed, read-out: SRB assay: 50% inhibition of cancer cell proliferation of sample concentration (IC50) of PC-3 prostate cancer cell line
HL-60, TB = experiment: NCI one-dose screening, leukemia HL-60, TB; assay type: cell-based, human; conditions: 10 μM
MOLT-4 = experiment: NCI one-dose screening, leukemia MOLT-4; assay type: cell-based, human; conditions: 10 μM
SR = experiment: NCI one-dose screening, leukemia SR; assay type: cell-based, human; conditions: 10 μM
PRMI-8226 cell line = experiment: NCI one-dose screening, leukemia PRMI-8226; assay type: cell-based, human; conditions: 10 μM
K562cell line = experiment: NCI one-dose screening, leukemia K562; assay type: cell-based, human; conditions: 10 μM
EKVX = experiment: NCI one-dose screening, non-small cell lung cancer EKVX; assay type: cell-based, human; conditions: 10 μM
HOP-62 = experiment: NCI one-dose screening, non-small cell lung cancer HOP-62; assay type: cell-based, human; conditions: 10 μM
HOP-92 = experiment: NCI one-dose screening, non-small cell lung cancer HOP-92; assay type: cell-based, human; conditions: 10 μM
NCI-H226 = experiment: NCI one-dose screening, non-small cell lung cancer NCI-H226; assay type: cell-based, human; conditions: 10 μM
NCI-H23 = experiment: NCI one-dose screening, non-small cell lung cancer NCI-H23; assay type: cell-based, human; conditions: 10 μM
NCI-H460 = experiment: NCI one-dose screening, non-small cell lung cancer NCI-H460; assay type: cell-based, human; conditions: 10 μM
NCI-H522 = experiment: NCI one-dose screening, non-small cell lung cancer NCI-H522; assay type: cell-based, human; conditions: 10 μM
A549/ATCC = experiment: NCI one-dose screening, non-small cell lung cancer A549/ATCC; assay type: cell-based, human; conditions: 10 μM
COLO 205 = experiment: NCI one-dose screening, colon cancer COLO 205; assay type: cell-based, human; conditions: 10 μM
HCC-2998 = experiment: NCI one-dose screening, colon cancer HCC-2998; assay type: cell-based, human; conditions: 10 μM
HCT-116 = experiment: NCI one-dose screening, colon cancer HCT-116; assay type: cell-based, human; conditions: 10 μM
HCT-15 = experiment: NCI one-dose screening, colon cancer HCT-15; assay type: cell-based, human; conditions: 10 μM
KM12 = experiment: NCI one-dose screening, colon cancer KM12; assay type: cell-based, human; conditions: 10 μM
HT29 = experiment: NCI one-dose screening, colon cancer HT29; assay type: cell-based, human; conditions: 10 μM
SF-268 = experiment: NCI one-dose screening, CNS cancer SF-268; assay type: cell-based, human; conditions: 10 μM
SF-539 = experiment: NCI one-dose screening, CNS cancer SF-539; assay type: cell-based, human; conditions: 10 μM
SNB-19 = experiment: NCI one-dose screening, CNS cancer SNB-19; assay type: cell-based, human; conditions: 10 μM
SNB-75 = experiment: NCI one-dose screening, CNS cancer SNB-75; assay type: cell-based, human; conditions: 10 μM
U251 = experiment: NCI one-dose screening, CNS cancer U251; assay type: cell-based, human; conditions: 10 μM
LOX IMVI = experiment: NCI one-dose screening, melanoma LOX IMVI; assay type: cell-based, human; conditions: 10 μM
MALME-3M = experiment: NCI one-dose screening, melanoma MALME-3M; assay type: cell-based, human; conditions: 10 μM
M14 = experiment: NCI one-dose screening, melanoma M14; assay type: cell-based, human; conditions: 10 μM
UACC-62 = experiment: NCI one-dose screening, melanoma UACC-62; assay type: cell-based, human; conditions: 10 μM
UACC-257 = experiment: NCI one-dose screening, melanoma UACC-257; assay type: cell-based, human; conditions: 10 μM
SK-MEL-2 = experiment: NCI one-dose screening, melanoma SK-MEL-2; assay type: cell-based, human; conditions: 10 μM
SK-MEL-28 = experiment: NCI one-dose screening, melanoma SK-MEL-28; assay type: cell-based, human; conditions: 10 μM
SK-MEL-5 = experiment: NCI one-dose screening, melanoma SK-MEL-5; assay type: cell-based, human; conditions: 10 μM
IGROV1 = experiment: NCI one-dose screening, ovarian cancer IGROV1; assay type: cell-based, human; conditions: 10 μM
OVCAR-3 = experiment: NCI one-dose screening, ovarian cancer OVCAR-3; assay type: cell-based, human; conditions: 10 μM
OVCAR-5 = experiment: NCI one-dose screening, ovarian cancer OVCAR-5; assay type: cell-based, human; conditions: 10 μM
OVCAR-8 = experiment: NCI one-dose screening, ovarian cancer OVCAR-8; assay type: cell-based, human; conditions: 10 μM
SK-OV-3 = experiment: NCI one-dose screening, ovarian cancer SK-OV-3; assay type: cell-based, human; conditions: 10 μM
786-O = experiment: NCI one-dose screening, renal cancer 786-O; assay type: cell-based, human; conditions: 10 μM
[2] = NCI one-dose screening, renal cancer A489; assay type: cell-based, human; conditions: 10 μM
ACHN = experiment: NCI one-dose screening, renal cancer ACHN; assay type: cell-based, human; conditions: 10 μM
SN12C = experiment: NCI one-dose screening, renal cancer SN12C; assay type: cell-based, human; conditions: 10 μM
TK-10 = experiment: NCI one-dose screening, renal cancer TK-10; assay type: cell-based, human; conditions: 10 μM
UO-31 = experiment: NCI one-dose screening, renal cancer UO-31; assay type: cell-based, human; conditions: 10 μM
RXF, 393 = experiment: NCI one-dose screening, renal cancer RXF, 393; assay type: cell-based, human; conditions: 10 μM
DU145 = experiment: NCI one-dose screening, prostate cancer DU145; assay type: cell-based, human; conditions: 10 μM
PC-3 = experiment: NCI one-dose screening, prostate cancer PC-3; assay type: cell-based, human; conditions: 10 μM
MCF7 = experiment: NCI one-dose screening, breast cancer MCF7; assay type: cell-based, human; conditions: 10 μM
HS 578-T = experiment: NCI one-dose screening, breast cancer HS 578-T; assay type: cell-based, human; conditions: 10 μM; Breast cancer
MDA-MB-231/ATCC = experiment: NCI one-dose screening, breast cancer MDA-MB-231/ATCC; assay type: cell-based, human; conditions: 10 μM
MDA-MB-468 = experiment: NCI one-dose screening, breast cancer MDA-MB-468; assay type: cell-based, human; conditions: 10 μM
NCl/ADR-RES = experiment: NCI one-dose screening, breast cancer NCl/ADR-RES; assay type: cell-based, human; conditions: 10 μM; listed under Ovarian cancer
BT-549 = experiment: NCI one-dose screening, breast cancer BT-549; assay type: cell-based, human; conditions: 10 μM
T-47D = experiment: NCI one-dose screening, breast cancer T-47D; assay type: cell-based, human; conditions: 10 μM
MDA, -MB-435 = experiment: NCI one-dose screening, breast cancer MDA, -MB-435; assay type: cell-based, human; conditions: 10 μM; listed under Melanoma
human tumor cell lines = experiment: NCI one-dose screening, Mean / Delta / Range of growth percent over all tested cell lines; assay type: cell-based; conditions: 10 μM

Cc1ccc(Sc2cc3c(c4nsnc24)C(=O)c2ccccc2C3=O)c(C)c1 [C25, 4-(2,4-dimethylphenylthio)anthra[2,1-c] [1,2,5]thiadiazol-6,11-dione]
IC50 [1]: > 15 µM | Growth Percent HL-60(TB) (HL-60, TB): 99.93% | Growth Percent MOLT-4 (MOLT-4): 91.01% | Growth Percent SR (SR): 70.26% | Growth Percent RPMI-8226 (PRMI-8226 cell line): 85.14% | Growth Percent K562 (K562cell line): 67.97% | Growth Percent EKVX (EKVX): 108.79% | Growth Percent HOP-62 (HOP-62): 79.34% | Growth Percent HOP-92 (HOP-92): 97.83% | Growth Percent NCI-H226 (NCI-H226): 01.50% | Growth Percent NCI-H23 (NCI-H23): 89.40% | Growth Percent NCI-H460 (NCI-H460): 102.01% | Growth Percent NCI-H522 (NCI-H522): 96.81% | Growth Percent A549/ATCC (A549/ATCC): 109.80% | Growth Percent COLO 205 (COLO 205): 106.63% | Growth Percent HCC-2998 (HCC-2998): 121.23% | Growth Percent HCT-116 (HCT-116): 94.55% | Growth Percent HCT-15 (HCT-15): 83.04% | Growth Percent KM12 (KM12): 96.42% | Growth Percent HT29 (HT29): 101.47% | Growth Percent SF-268 (SF-268): 90.61% | Growth Percent SF-539 (SF-539): 100.22% | Growth Percent SNB-19 (SNB-19): 102.33% | Growth Percent SNB-75 (SNB-75): 76.05% | Growth Percent U251 (U251): 104.99% | Growth Percent LOX IMVI (LOX IMVI): 90.38% | Growth Percent MALME-3M (MALME-3M): 108.23% | Growth Percent M14 (M14): 100.77% | Growth Percent UACC-62 (UACC-62): 94.50% | Growth Percent UACC-257 (UACC-257): 121.93% | Growth Percent SK-MEL-2 (SK-MEL-2): 98.52% | Growth Percent SK-MEL-28 (SK-MEL-28): 118.64% | Growth Percent SK-MEL-5 (SK-MEL-5): 109.99% | Growth Percent IGROV1 (IGROV1): 95.00% | Growth Percent OVCAR-3 (OVCAR-3): 105.38% | Growth Percent OVCAR-5 (OVCAR-5): 106.46% | Growth Percent OVCAR-8 (OVCAR-8): 104.59% | Growth Percent SK-OV-3 (SK-OV-3): 110.36% | Growth Percent 786-0 (786-O): 105.11% | Growth Percent A498 [2]: 84.37% | Growth Percent ACHN (ACHN): 94.24% | Growth Percent SN12C (SN12C): 98.68% | Growth Percent TK-10 (TK-10): 127.11% | Growth Percent UO-31 (UO-31): 65.72% | Growth Percent RXF 393 (RXF, 393): 105.93% | Growth Percent DU145 (DU145): 109.69% | Growth Percent PC-3 (PC-3): 76.11% | Growth Percent MCF7 (MCF7): 79.77% | Growth Percent HS 578T (HS 578-T): 99.06% | Growth Percent MDA-MB-231/ATCC (MDA-MB-231/ATCC): 92.27% | Growth Percent MDA-MB-468 (MDA-MB-468): 100.45% | Growth Percent NCI/ADR-RES (NCl/ADR-RES): 97.75% | Growth Percent BT-549 (BT-549): 94.55% | Growth Percent T-47D (T-47D): 75.36% | Growth Percent MDA-MB-435 (MDA, -MB-435): 105.58% | Growth Percent Delta (human tumor cell lines; delta over all cell lines): 31.54% | Growth Percent Mean (human tumor cell lines; mean over all cell lines): 97.26% | Growth Percent Range (human tumor cell lines; range over all cell lines): 61.39%
